Data published in ChEMBL document CHEMBL5620396, “Phenotypic screening identifies a trisubstituted imidazo[1,2-a]pyridine series that induces differentiation in multiple AML cell lines” (Eur J Med Chem, 2023).
In brackets after ≈: the same amount, converted by molar mass. Activity calls are given as the source filed them. No cut-off for these calls is given here.

Tests used:
[1] = Cmax in CD-1 mouse at 1 mg/kg, po administered as single dose and measured on day 1; type: ADME, organism-based; settings: in vivo, time 1 day
Kasumi 1 [2] = experiment: Induction of morphological changes in human Kasumi 1 cells assessed as variations in nuclear segmentation at 10 uM; type: functional, cell-based
ME-1 [3] = experiment: Induction of morphological changes in human ME-1 cells assessed as variations in nuclear segmentation at 10 uM; type: functional, cell-based
KG-1 [4] = experiment: Induction of morphological changes in human KG-1 cells assessed as variations in nuclear:cytoplasmic ratio at 10 uM; type: functional, cell-based
[5] = Apparent volume of distribution during terminal phase in CD-1 mouse at 3 mg/kg, po administered as single dose and measured over 24 hrs; type: ADME, organism-based; settings: in vivo, read-out: Vz/F
[6] = Dose normalized Cmax in CD-1 mouse at 1 mg/kg, po administered as single dose and measured on day 1; type: ADME, organism-based; settings: in vivo, 24 h, time 1 day
HL-60 [7] = experiment: Induction of morphological changes in human HL-60 cells assessed as variations in nuclear segmentation at 10 uM; type: functional, cell-based
[8] = Dose normalized Cmax in CD-1 mouse at 20 mg/kg, po administered as single dose and measured on day 1; type: ADME, organism-based; settings: in vivo, 24 h, time 1 day
HL-60 [9] = experiment: Induction of morphological changes in human HL-60 cells assessed as variations in cell size and shape at 10 uM; type: functional, cell-based
[10] = Dose normalized AUC (0 to 8 hrs) in CD-1 mouse at 20 mg/kg, po administered as single dose and measured on day 1; type: ADME, organism-based; settings: in vivo, 24 h, time 1 day
OCI-AML-3 [11] = experiment: Induction of morphological changes in human OCI-AML-3 cells assessed as variations in nuclear segmentation at 10 uM; type: functional, cell-based
KG-1 [12] = experiment: Induction of morphological changes in human KG-1 cells assessed as variations in nuclear segmentation at 10 uM; type: functional, cell-based
[13] = Solubility of compound at pH 7; type: physicochemical; settings: buffer
KG-1 [14] = experiment: Induction of morphological changes in human KG-1 cells assessed as appearance of granules and vacuoles at 10 uM; type: functional, cell-based
[15] = Cmax in CD-1 mouse at 1 mg/kg, po administered as repeated dose on day 1 and 4; type: ADME, organism-based; settings: in vivo, time 4 day
[16] = AUC (0 to 8 hrs) in CD-1 mouse at 3 mg/kg, po administered as single dose and measured over 24 hrs; type: ADME, organism-based; settings: in vivo
ME-1 [17] = experiment: Induction of differentiation in human ME-1 cells assessed as reduction in live cell number at 123 nM incubated for 4 days by acridine orange/DAPI staining based analysis; type: functional; settings: time 4.0 day
Kasumi 1 [18] = experiment: Induction of differentiation in human Kasumi 1 cells assessed as reduction in live cell number at 123 nM incubated for 4 days by acridine orange/DAPI staining based analysis; type: functional; settings: time 4.0 day
Kasumi 1 [19] = experiment: Induction of morphological changes in human Kasumi 1 cells assessed as appearance of granules and vacuoles at 10 uM; type: functional, cell-based
THP-1 [20] = experiment: Induction of differentiation in human THP-1 cells assessed as upregulation of CD11b response incubated for 4 days by flow cytometry analysis; settings: THP-1, 96 h
[21] = Apparent clearance in CD-1 mouse at 3 mg/kg, po administered as single dose and measured over 24 hrs; type: ADME, organism-based; settings: in vivo
OCI-AML-3 [22] = experiment: Induction of morphological changes in human OCI-AML-3 cells assessed as appearance of granules and vacuoles at 10 uM; type: functional, cell-based
ME-1 [23] = experiment: Induction of morphological changes in human ME-1 cells assessed as variations in cell size and shape at 10 uM; type: functional, cell-based
HL-60 [24] = experiment: Induction of differentiation in human HL-60 cells assessed as reduction in live cell number at 123 nM incubated for 4 days by acridine orange/DAPI staining based analysis; type: functional; settings: time 4.0 day
HL-60 [25] = experiment: Induction of morphological changes in human HL-60 cells assessed as appearance of granules and vacuoles at 10 uM; type: functional, cell-based
[26] = Dose normalized AUC (0 to 8 hrs) in CD-1 mouse at 20 mg/kg, po administered as repeated dose on day 1 and 4; type: ADME, organism-based; settings: in vivo, 96 h, time 4 day
THP-1 [27] = experiment: Induction of morphological changes in human THP-1 cells assessed as variations in nuclear:cytoplasmic ratio at 10 uM; type: functional, cell-based
[28] = Semi-thermodynamic aqueous solubility of compound; type: physicochemical; settings: buffer; read-out: Therm_solubility
OCI-AML-3 [29] = experiment: Induction of differentiation in human OCI-AML-3 cells assessed as reduction in live cell number at 123 nM incubated for 4 days by acridine orange/DAPI staining based analysis; type: functional; settings: time 4.0 day
[30] = Solubility of compound at pH 1; type: physicochemical; settings: buffer
[31] = AUC (0 to 8 hrs) in CD-1 mouse at 20 mg/kg, po administered as single dose and measured on day 1; type: ADME, organism-based; settings: in vivo, time 1 day
[32] = Half life in CD-1 mouse at 3 mg/kg, po administered as single dose and measured over 24 hrs; type: ADME, organism-based; settings: in vivo
[33] = Cmax in CD-1 mouse at 20 mg/kg, po administered as repeated dose on day 1 and 4; type: ADME, organism-based; settings: in vivo, time 4 day
THP-1 [34] = experiment: Induction of morphological changes in human THP-1 cells assessed as appearance of granules and vacuoles at 10 uM; type: functional, cell-based
[35] = Dose normalized AUC (0 to 8 hrs) in CD-1 mouse at 1 mg/kg, po administered as repeated dose on day 1 and 4; type: ADME, organism-based; settings: in vivo, 96 h, time 4 day
[36] = Oral bioavailability in CD-1 mouse at 3 mg/kg administered as single dose and measured over 24 hrs; type: ADME, organism-based; settings: in vivo
[37] = Dose normalized Cmax in CD-1 mouse at 1 mg/kg, po administered as repeated dose on day 1 and 4; type: ADME, organism-based; settings: in vivo, 96 h, time 4 day
[38] = Plasma protein binding in mouse; type: ADME, cell-free; settings: read-out: PPB (converted)
[39] = Dose normalized AUC (0 to 8 hrs) in CD-1 mouse at 1 mg/kg, po administered as single dose and measured on day 1; type: ADME, organism-based; settings: in vivo, 24 h, time 1 day
THP-1 [40] = experiment: Induction of morphological changes in human THP-1 cells assessed as variations in cell size and shape at 10 uM; type: functional, cell-based
THP-1 [41] = experiment: Induction of morphological changes in human THP-1 cells assessed as variations in nuclear segmentation at 10 uM; type: functional, cell-based
KG-1 [42] = experiment: Induction of morphological changes in human KG-1 cells assessed as variations in cell size and shape at 10 uM; type: functional, cell-based
[43] = Toxicity in CD-1 mouse assessed as adverse effects at 3 mg/kg, po administered twice daily for 7 days; type: organism-based; settings: in vivo, 168 h, time 7 day
ME-1 [44] = experiment: Induction of morphological changes in human ME-1 cells assessed as appearance of granules and vacuoles at 10 uM; type: functional, cell-based
[45] = AUC (0 to 8 hrs) in CD-1 mouse at 20 mg/kg, po administered as repeated dose on day 1 and 4; type: ADME, organism-based; settings: in vivo, time 4 day
[46] = Dose normalized Cmax in CD-1 mouse at 20 mg/kg, po administered as repeated dose on day 1 and 4; type: ADME, organism-based; settings: in vivo, 96 h, time 4 day
[47] = Cmax in CD-1 mouse at 20 mg/kg, po administered as single dose and measured on day 1; type: ADME, organism-based; settings: in vivo, time 1 day
OCI-AML-3 [48] = experiment: Induction of differentiation in human OCI-AML-3 cells assessed as upregulation of CD11b response incubated for 4 days by flow cytometry analysis; settings: OCI-AML-3, 96 h

Cmax [1]: 187 ng/mL
Vd/F [5]: 3.1 L/kg
Cmax/dose [6]: 187 ng/mL
Cmax/dose [8]: 34 ng/mL
AUC/dose [10]: 223 ng·h/mL
solubility [13]: 21 µM (≈ 9.44 µg/mL)
Cmax [15]: 204 ng/mL
AUC(0-t) at 24 h [16]: 3060 ng·h/mL
EC50 (THP-1 [20]): 69 nM
CL/F [21]: 16 mL/min/kg
AUC/dose [26]: 218 ng·h/mL
solubility thermodynamic [28]: 21 µM (≈ 9.44 µg/mL)
solubility [30]: > 100 µM
AUC(0-t) at 24 h [31]: 4460 ng·h/mL
half-life [32]: 132 min
Cmax [33]: 784 ng/mL
AUC/dose [35]: 731 ng·h/mL
bioavailability [36]: 100%
Cmax/dose [37]: 204 ng/mL
fraction unbound [38]: 0.005
AUC/dose [39]: 845 ng·h/mL
AUC(0-t) at 96 h [45]: 4370 ng·h/mL
Cmax/dose [46]: 39 ng/mL
Cmax [47]: 677 ng/mL
EC50 (OCI-AML-3 [48]): 25 nM
SMILES: Cc1cc(F)ccc1-c1cc(NS(C)(=O)=O)c2ncc(-c3ccc4c(cnn4C)c3)n2c1
Activity (Kasumi 1 [2]): Active
Activity (ME-1 [3]): Active
Activity (KG-1 [4]): Active
Activity (HL-60 [7]): Active
Activity (HL-60 [9]): Active
Activity (OCI-AML-3 [11]): Active
Activity (KG-1 [12]): Active
Activity (KG-1 [14]): Active
Activity (ME-1 [17]): Active
Activity (Kasumi 1 [18]): Active
Activity (Kasumi 1 [19]): Active
Activity (OCI-AML-3 [22]): Active
Activity (ME-1 [23]): Active
Activity (HL-60 [24]): Active
Activity (HL-60 [25]): Active
Activity (THP-1 [27]): Active
Activity (OCI-AML-3 [29]): Active
Activity (THP-1 [34]): Active
Activity (THP-1 [40]): Active
Activity (THP-1 [41]): Active
Activity (KG-1 [42]): Active
Activity [43]: Non-Toxic
Activity (ME-1 [44]): Active
